Data: patent US7150876B2, “Methods for stabilizing ingredients within cosmetics, personal care and household products” (Merck Patent GmbH, priority 2004, dated 2006)

Columns and labels:
[1] = Singlet oxygen quenching (RNO bleaching at 440 nm, methylene blue sensitizer, UV A); type: biochemical; conditions: for Singlet oxygen scavenging behaviour: FIG. 3; for IC50% (μg/ml), singlet oxygen quenching ability: RNO bleaching at 440 nm, 20 min UV A
Experimental: A solution of N,N-dimethyl-p-nitrosoaniline (RNO) and histidine and a known sensitizer (e.g. methylene blue) is exposed to UV A. Singlet oxygens generated under UV A induce a bleaching of RNO which can be measured spectrophotometrically at 440 nm. The efficiency of test products in terms of singlet oxygen scavenging is measured at 440 nm for various concentrations.
All measurements were performed at room temperature (24 C) with a Beckman Coulter DU-640 spectrophotometer at a scan speed of 120 nm/min with a spectral range from 300 to 700 nm.
150, Sigma-Aldrich • RNO (19 mg) dissolved in 50 ml of Buffer solution subsequent dilution by factor 25 in de-ionized water. • L-Histidine Solution (40 mM) • Mol. Wt. […] 320, Sigma-Aldrich • 5 mg are dissolved in distilled water (100 ml) subsequent dilution at 6.4 ml in 25 ml of de-ionized water. b) Antioxidant Solutions: • Ascorbic acid (0.5 mM) • Mol. Wt.
The stock solutions were added in an orderly manner with quantities according to the table below as to obtain a final total volume of 4.5 ml for each preparation. First, the RNO buffered solution was taken, followed by addition of L-Histidine and the sensitizer Methylene Blue. Then, the antioxidant solution was added and topped off to 4.5 ml total volume with buffer solution. This preparation was exposed to UV A radiation (˜35 W/m^2) for 20 min to generate singlet oxygens. The light absorption spectra were then recorded and the optical density measured at 440 nm (corresponding to RNO). The inverse of the light absorbances at 440 nm is then plotted as a function of the concentration in antioxidant.

[2] = Photostabilization and color change of Vanillin in ethanolic solution under sun simulator; type: physicochemical; conditions: for Relative absorption of Vanillin at 281 nm (%): ethanolic solution; for Color change of Vanillin in solution (new light absorption band around 390 nm, yellow color): with and without stabilizer, FIG. 1
Experimental: (§1) In Solution: Solutions in ethanol are prepared at respective concentrations of photosensitive materials and photostabilizer (typically 1:1 to 1:5 in weight %). […] The amount of photosensitive materials remaining in solution is calculated from the ratio of their maximal absorption band (λmax), before and after irradiation.
(§2) Amount of energy: 10 mJoules/Cm^2=1 MED
Photostabilization Results of Vanillin in Ethanolic Solution
Color Change of Vanillin in Solution Under Sun Simulator With and Without Diethylhexyl Syringylidene Malorate in Solution
Photostabilization Results of Vanillin in Ethanolic Solution with isoamyl-alpha-acetyl-3,5-dimethoxy-4-hydroxy cinnamate

[3] = Photostability of Guaiazulene in a shampoo formulation under sun simulator; type: physicochemical; conditions: stabilizer 0.1% in the shampoo
Experimental: In Formulation: Samples are prepared as ultrathin films between two quartz plates as to obtain a minimum of 90% light transmission over the entire spectrum range of non absorbing chromophores. For example, ingredients which absorb only in the UV will be tested in formulation to obtain a minimum of 90% light transmission over the visible range. Samples are then irradiated under sun simulator (754 W/m^2, typically 2 MED/h) for given times and light absorption spectra recorded at each time. The remaining percentage of photosensitive compounds is calculated from the light absorption maximum (λmax) of the corresponding peak in the absorption spectrum.
as §2
Formulation Used for the Study Described in Example-5
Procedure: Combine A and heat to 70–75° C., except for U-care JR-400. Disperse U-care JR-400 in A under agitation. Add ingredients of phase B one by one at 70° C. Add phase C at 40° C. Premix Phase D and add to batch at 40° C. At 35° C. add phase E. Adjust pH (˜6.5) and viscosity with phase F.

[4] = Photostability of β carotene in lotion under sun simulator; conditions: stabilizer 0.2%, β carotene 0.02%
[5] = Photostabilization of natural Tocopherols in ethanolic solution under sun simulator; type: physicochemical; conditions: stabilizer 0.05%
Experimental: (§3) In Solution: Solutions in ethanol are prepared at respective concentrations of photosensitive materials and photostabilizer (typically 1:1 to 1:5 in weight %). Solutions are exposed to a sun simulator (754 W/m^2, 2 MED/h,) for various durations and light absorption spectra recorded for each sample at given times. The amount of photosensitive materials remaining in solution is calculated from the ratio of their maximal absorption band (λmax), before and after irradiation.
as §2
Photostabilization Results of Natural Tocopherols in Ethanolic Solution

[6] = Color change of Menthyl anthranilate in solution under sun simulator; type: physicochemical; conditions: menthyl anthranilate:stabilizer 1:5, FIG. 2
Experimental: as §3
Color Change of Menthyl Anthranilate Under Sun Simulator With and Without Diethylhexyl Syringylidene Malonate in Solution

[7] = Photostabilization of Guaiazulene in ethanolic solution under sun simulator; type: physicochemical; conditions: for Relative absorption of Guaiazulene at 600 nm (%): ethanolic solution, sun simulator
Experimental: as §1, §2
Photostabilization Results of Guaiazulene in Ethanolic Solution

[8] = Photostability of β carotene in lotion at room temperature, visible light, one month; conditions: room temperature storage

## COc1cc(C=C(C(C)=O)C(=O)OCCC(C)C)cc(OC)c1O [Eusolex ASA ™, Isoamyl alpha acetyl-3,5 dimethoxy 4 hydroxy benzylidene malonate]
[1]
  Efficiency as an antioxidant (ranking): best efficiency as an antioxidant
  Singlet oxygen scavenging behaviour: efficient singlet oxygen scavengers, better than Vitamin E
  IC50% (μg/ml), singlet oxygen quenching ability: 61 µg/mL

## COc1cc(C=O)ccc1O [Vanillin]
[2]; 0 MED
  Relative absorption of Vanillin at 281 nm (%): 100%
[2]; 2 MED
  Relative absorption of Vanillin at 281 nm (%): 45%
[2]; 5 MED
  Relative absorption of Vanillin at 281 nm (%): 40%
[2]; 10 MED
  Relative absorption of Vanillin at 281 nm (%): 36%
[2]
  Color change of Vanillin in solution (new light absorption band around 390 nm, yellow color): a new light absorption band appears around 390 nm

## CCCCC(CC)COC(=O)C(=Cc1cc(OC)c(O)c(OC)c1)C(=O)OCC(CC)CCCC (stereo not drawn) [Diethylhexyl syringylidene malonate, Di-2-ethylhexyl 3,5 dimethoxy 4 hydroxy benzylidene malonate]
[3]
  Effect of stabilizer on photostability of Guaiazulene in shampoo: clear improvement in the photostability of Guaiazulene
[4]
  Effect of stabilizer on photostability of β carotene in lotion: clear improvement in the photostability of β carotene
[5]
  Effect of stabilizer on photostability of Tocopherols in solution: clear improvement in the photostability of Tocopherols
[2]
  Color change of Vanillin in solution (new light absorption band around 390 nm, yellow color): does not appear
[6]
  Color change of Menthyl anthranilate (new light absorption band around 390 nm, yellow color): prevents any alteration/degradation of the fragrance
[1]
  Singlet oxygen scavenging behaviour: efficient singlet oxygen scavengers, better than Vitamin E
  IC50% (μg/ml), singlet oxygen quenching ability: 80 µg/mL

## O=C1O[C@H]([C@@H](O)CO)C(O)=C1O [Ascorbic acid, reference compound]
[1]
  Singlet oxygen scavenging behaviour: pro-oxidant
  IC50% (μg/ml), singlet oxygen quenching ability: Pro-oxidant

## Cc1c(C)c2c(c(C)c1O)CCC(C)(C(=O)O)O2 (stereo not drawn) [Trolox C, S-hydroxy-tetramethylchroman carboxylic acid, reference compound]
[1]
  IC50% (μg/ml), singlet oxygen quenching ability: 88 µg/mL

## Cc1ccc(C(C)C)cc2c(C)ccc1-2 [Guaiazulene]
[7]; 0 MED
  Relative absorption of Guaiazulene at 600 nm (%): 100%
[7]; 2 MED
  Relative absorption of Guaiazulene at 600 nm (%): 83%
[7]; 5 MED
  Relative absorption of Guaiazulene at 600 nm (%): 43%
[7]; 10 MED
  Relative absorption of Guaiazulene at 600 nm (%): 6%
[7]; total energy of 100 mJ/cm^2
  Guaiazulene lost when exposed to solar simulator: ~90%

## CC1=C(/C=C/C(C)=C/C=C/C(C)=C/C=C/C=C(C)/C=C/C=C(C)/C=C/C2=C(C)CCCC2(C)C)C(C)(C)CCC1 [β-carotene]
[8]
  Stability of β-carotene in ambient light: degrades in ambient light at room temperature storage

## CC1CCC(C(C)C)C(OC(=O)c2ccccc2N)C1 (stereo not drawn) [Menthyl anthranilate]
[6]
  Color change of Menthyl anthranilate (new light absorption band around 390 nm, yellow color): a new light absorption band for menthyl antranillate appears around 390 nm

## CCOS(=O)(=O)[O-].CCOS(=O)(=O)[O-].CC[N+](C)(C)CCCNC(=O)C(=Cc1cc(OC)c(O)c(OC)c1)C(=O)NCCC[N+](C)(C)CC [Eusolex HP ™, Bis-N-[3′-(N′,N′-Dimethylethylammonium)propyl]-3,5-dimethoxy-4-hydroxy benzylidene malonamide bis ethyl sulfate]
[1]
  Singlet oxygen scavenging behaviour: efficient singlet oxygen scavengers, better than Vitamin E
  IC50% (μg/ml), singlet oxygen quenching ability: 104 µg/mL
